Results taken from PMC7165133, “Functional expression and characterization of cinnamic acid 4-hydroxylase from the hornwort Anthoceros agrestis in Physcomitrella patens” (Plant Cell Reports, 2020).
Blank lines part the entries; values can stand above or below the molecule they belong to.

How the values were obtained:
[1] = tested on: T1, Physcomitrella patens NADPH:cytochrome P450 reductase(s) (CPR or POR), in Pp_AaC4H; assay: HPLC of 4-coumaric acid formed (coupled C4H reaction), Michaelis-Menten fit; type: biochemical, Physcomitrium patens; conditions: 400 µM cinnamic acid, pH 7.0, 25 °C, 5 min; crude extract; NADPH oxidised by CPR, read-out via C4H; read-out: apparent Km
T1 construct: native reductase(s) of the host moss, four putative CPR genes; crude protein extract of moss expressing C-terminally 6xHis-tagged AaC4H; with trans-cinnamate 4-monooxygenase (Anthoceros agrestis)

[2] = tested on: T2, Physcomitrella patens NADPH:cytochrome P450 reductase(s) (CPR or POR), in Pp_WT; assay: as above; type: biochemical, Physcomitrium patens; conditions: 400 µM cinnamic acid, pH 7.0, 25 °C, 5 min; crude extract of untransformed moss; NADPH oxidised by CPR, read-out via C4H; read-out: apparent Km
T2 construct: native reductase(s), four putative CPR genes; crude protein extract of untransformed moss with its own C4Hs; with trans-cinnamate 4-monooxygenase; trans-cinnamate 4-monooxygenase

[3] = tested on: T3, Pp_WT (PpC4Hs); assay: HPLC of 4-coumaric acid formed, Michaelis-Menten fit; type: biochemical, Physcomitrium patens; conditions: 5 mM NADPH, pH 7.0, 25 °C, 5 min; crude extract of untransformed moss; read-out: apparent Km
T3 construct: gene PpC4H_1; native, crude protein extract of untransformed moss; six putative C4H genes, only two named in the main text; with NADPH--cytochrome P450 reductase

[4] = substrate: O=C(O)/C=C/c1ccccc1; assay: cells, lysate or membranes; conditions: 5 mM NADPH, pH 7.0, 25 °C, 5 min, crude extract with endogenous PpC4H background

Km [1]: 88 ± 19.5 µM
Km [2]: 92.3 ± 10.8 µM
Molecule: NC(=O)C1=CN([C@@H]2O[C@H](COP(=O)(O)OP(=O)(O)OC[C@H]3O[C@@H](n4cnc5c(N)ncnc54)[C@H](OP(=O)(O)O)[C@@H]3O)[C@@H](O)[C@H]2O)C=CC1 [NADPH]

Km [3]: 25.1 ± 8.9 µM
Molecule: O=C(O)/C=C/c1ccccc1 [t-cinnamic acid]

B1: Pp_AaC4H (AaC4H, CYP73A260) (Anthoceros agrestis) (protein)
chain: MASGETTLGSTNTMFLDALSILEALLATIAVLWLVKQVTSSRLKPPPGPLALPILGNWLQVGDDLNHRNLSDLAKKYGDIFLLRMGQRNVVVVSSPELAKEVLLTQGVEFGSRTRNVVFDIFTGKGQDMVFTVYGEHWRRMRRIMTVPFFTSKVVQQSRVAWEDETDRVIADLKTNPKYAAASTTGVVLRQRLQLLMYNTMYRLMFDRRFESEDDPLFVQLKALNGERSRLAQSFEYNYGDFIPVLRPLLRNYLKICQDIKDRRLALFKNHFLDERKKLLDTKRSQTAASTGKCAIDHILDAQKNGKINEDNVLYIVENINVAAIETTLWSMEWGLAELVNNPDIQQKVREELDHVLGKGTPLTEPDIQAGKLSYLAAVVKETLRLHMAIPLLVPHMNLHQARLGGYDIPAESKVLVNAWYLANNPALWKDPETFRPERFLEGDKGAEPNGTDFRFLPFGVGRRSCPGIILALPLLNLVLGRLVQSFLLTCPPGVEKLDLSEKGGQFSLHIAAHSNIVVKPRPDM
Km [4]: 17.3 ± 5.0 µM
